The text below walks through data of patent publication US20120014979A1, “USE OF BCL6 INHIBITORS FOR TREATING AUTOIMMUNE DISEASES” (priority 2010, published 2012).

For this assay, the system named is individual with symptoms indicative of lupus. Description: Treatment of Lupus Erythematosus in an individual (Example 2). Type of assay: in vivo, human. How it is done: The individual is a person with symptoms including chronic fever, malaise, joint pains, myalgias, fatigue, indicative of lupus. The individual has previously been treated, largely unsuccessfully, with cyclophosphamides, corticosteroids and immunosuppressants.
The individual is treated for 1 to 60 days sequentially with BPI-1 administered at a dose of 4 mg/kg daily.

As to “NH2-G(RRRQRRKKR)GG(RGIEHAAR)GG(DIM)G(EW)G(NEIF)G(AIA)G(FL)G-OH [BPI-1]”, the “amelioration of lupus (severity and frequency of flares and their symptoms)” value (person, 4 mg/kg daily, 1 to 60 days sequentially) was “long-lasting amelioration of lupus with a reduction in the severity and frequency of flares and their symptoms”.

On to `O=C(O)CC(C(=O)O)N1C(=O)/C(=C2/C(=O)Nc3ccc(Br)cc32)SC1=S` (centres unmarked) [79-6], for which the “results in equivalent or comparable trials with individuals exhibiting similar symptomatology” value (BCL6 inhibitors other than BPI, compared with BPI-1 treatment of lupus) is given as “Equivalent results are obtainable”.
